# Publication PMC2860105 (Science (New York, N.Y.), 2010)
# Key:
# [1] = test system: Vps34; assay: in vitro inhibition of Vps34; format: biochemical
# [2] = target: p110γ (Homo sapiens, UniProt P48736); assay: in vitro inhibition of class I PI3K p110γ; format: biochemical
# Sequence of p110γ (P48736 whole entry, species assumed): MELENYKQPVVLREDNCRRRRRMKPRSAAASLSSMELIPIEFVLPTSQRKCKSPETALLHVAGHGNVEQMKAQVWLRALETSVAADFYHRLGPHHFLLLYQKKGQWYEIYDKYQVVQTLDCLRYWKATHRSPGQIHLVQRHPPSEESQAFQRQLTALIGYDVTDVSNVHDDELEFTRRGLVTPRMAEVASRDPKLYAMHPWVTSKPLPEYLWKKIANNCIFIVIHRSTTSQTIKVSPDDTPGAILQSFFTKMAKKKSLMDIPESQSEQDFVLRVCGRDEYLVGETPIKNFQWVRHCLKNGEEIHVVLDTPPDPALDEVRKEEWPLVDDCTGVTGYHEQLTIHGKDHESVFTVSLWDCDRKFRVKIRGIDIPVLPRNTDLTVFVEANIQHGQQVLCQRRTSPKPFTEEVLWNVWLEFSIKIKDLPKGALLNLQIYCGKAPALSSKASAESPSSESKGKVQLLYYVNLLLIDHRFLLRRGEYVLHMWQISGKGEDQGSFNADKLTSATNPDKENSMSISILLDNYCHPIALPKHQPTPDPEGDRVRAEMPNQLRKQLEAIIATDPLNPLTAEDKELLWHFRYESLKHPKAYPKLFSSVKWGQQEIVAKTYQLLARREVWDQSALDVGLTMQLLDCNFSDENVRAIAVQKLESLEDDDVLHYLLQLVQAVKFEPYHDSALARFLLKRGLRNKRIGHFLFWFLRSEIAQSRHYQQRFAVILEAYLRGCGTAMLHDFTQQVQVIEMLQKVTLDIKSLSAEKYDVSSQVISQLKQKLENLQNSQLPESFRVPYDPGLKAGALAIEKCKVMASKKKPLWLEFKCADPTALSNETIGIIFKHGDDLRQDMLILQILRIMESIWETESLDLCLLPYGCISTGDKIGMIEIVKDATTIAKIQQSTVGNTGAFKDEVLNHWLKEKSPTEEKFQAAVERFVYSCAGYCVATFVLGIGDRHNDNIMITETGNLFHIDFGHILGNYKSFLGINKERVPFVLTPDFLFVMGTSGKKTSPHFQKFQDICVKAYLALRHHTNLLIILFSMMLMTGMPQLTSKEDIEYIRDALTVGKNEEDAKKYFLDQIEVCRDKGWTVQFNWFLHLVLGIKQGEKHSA
compound,measurement,setting,value
"Cn1cnc(N)c2ncnc1-2 [3-MA, 3-methyladenine, reference compound]",specificity for Vps34 versus other PI3Ks (in words),"[1]; in vitro assays, Fig. S8, Fig. 4G",preference for Vps34
"CC(=O)Nc1nc(C)c(-c2ccc(Cl)c(S(=O)(=O)NCCO)c2)s1 [PIK-93, reference compound]",IC50 of PIK-93 relative to PIK-90 (in words),[1]; Fig. S8,lower IC50
COc1ccc(-c2sc(NC(C)=O)nc2C)cc1S(=O)(=O)NCCO [PT21],increase in IC50 for PI3Kγ (p110γ) compared to PIK93,[2]; ratio of IC50 values vs PIK93,> 10 fold
same,IC50,"[2]; read-out: IC50 for the most potently inhibited Class I PI3K (p110γ), in vitro, Fig. S9",61 nM
same,change in IC50 relative to PIK-93 (in words),"[1]; analogues of PIK-93, Fig. S9",little change in IC50
same,IC50,"[1]; read-out: IC50 for Vps34, in vitro, Fig. S9",88 nM
